Laboratory results taken from patent US20260226071A1, “2, 4-DIANILINOPYRIMIDINE-BASED AURORA-A KINASE SELECTIVE DEGRADATION INDUCING COMPOUNDS” (UPPTHERA, INC., priority 2023, published 2026).

Biological target: T1, Aurora kinase A (AURKA) (Homo sapiens, UniProt O14965)
T1 construct: endogenous in cells; host or cells: HeLa LgBit (AURKA-HiBit KI), CRISPR/Cas9 knock-in at the endogenous AURKA locus
T1 sequence (O14965 1-403): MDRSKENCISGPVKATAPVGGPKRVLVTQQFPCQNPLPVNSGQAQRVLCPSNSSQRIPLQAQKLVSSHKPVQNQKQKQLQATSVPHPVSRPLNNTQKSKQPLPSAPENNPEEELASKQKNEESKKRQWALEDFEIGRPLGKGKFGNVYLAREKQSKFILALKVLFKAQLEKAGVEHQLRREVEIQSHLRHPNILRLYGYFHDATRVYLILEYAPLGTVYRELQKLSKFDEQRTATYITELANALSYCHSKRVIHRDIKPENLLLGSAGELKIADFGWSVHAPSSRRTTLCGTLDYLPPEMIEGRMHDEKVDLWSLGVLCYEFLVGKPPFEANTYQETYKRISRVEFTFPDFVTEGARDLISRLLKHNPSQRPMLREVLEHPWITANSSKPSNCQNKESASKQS
Assay: Luciferase assay for AURKA in HeLa LgBit (AURKA-HiBit KI) cell line
Format: cell-based
Conditions: HeLa LgBit (AURKA-HiBit KI) cells, measured after 12 hours
Excerpt: HeLa cell lines that stably express LgBit were constructed via LgBit vector transfection. Then, donor DNA and guide RNA for insertion of HiBit amino acid sequence at C-terminus of inherent Aurora kinase A (AURKA) genes were designed and constructed. Thereafter, they were transfected into the cell lines with CRISPR/Cas9 expression vector system. HiBit gene knock-in single cells were selected, passaged and used for the experiments.
For cell culture, DMEM (Gibco, Cat. No. 11995-065; Lot. No. 2562497), FBS (Gibco, Cat. No. 16000-044; Lot. No. 2511328P), Penicillin/Streptomycin (PS) (Gibco, Cat. No. 15140-122; Lot. No. 2585636), 90 mm^2 cell culture dish (SPL, Cat. No. 20100), 96-well white plate, PBS pH 7.4 (Gibco, […]), TrypLE™ Express (Gibco, Cat. No. 12605-010; Lot. No. 2522525), counting chamber (hematocytometer) (Hirschmann, Cat. No. 8100204; Lot. No. 8021087) and 0.4% Trypan Blue solution (DYNEBIO, Cat. No. CBT3710; Lot. No. 20231017) were used. Cells were cultured in DMEM supplemented with 10% FBS and 1% PS and incubated in CO2 incubator (Thermo, Cat. No. 4111) at 37° C., 5% CO2 condition.
HeLa LgBit (AURKA-HiBit KI) cell lines were cultured in 90 mm^2 cell culture dish, and 3×10^4 cells in […] of total medium volume were seeded and incubated for 18 hours in CO2 incubator. Then, Eudurazine (Promega, Cat. No. N247B; Lot. No. 495218) was added to each well to make up 1% of the total volume, followed by further incubation for 2 hours in CO2 incubator.
The present compounds were fully dissolved in DMSO (Sigma-Aldrich Cat. No. D2438, Lot. No. RNBL7287) and 10 nM or 100 nM of total concentration were used in the experiment. After adding the compounds in each well of 96-well white plate, the plate was placed in the plate reader (BMG Labtech, CLARIOstar Plus) for real-time analysis. The wavelength for analysis was set to […], and the luminescence value was measured after 12 hours. The luminescence value was analyzed through an Excel program.

Structure (SMILES) | luminescence value (Level) (10 nM compound) | luminescence value (Level) (100 nM compound)
O=C1CCC(c2ccc(N3CCN(CCC4CCN(NC(=O)c5ccc(Nc6ncc(F)c(Nc7cc(C8CC8)[nH]n7)n6)cc5)CC4)CC3)cc2)C(=O)N1 (centres unmarked) [Compound 61, 4-((4-((5-cyclopropyl-1H-pyrazol-3-yl)amino)-5-fluoropyrimidin-2-yl)amino)-N-(4-(2-(4-(4-(2,6-dioxopiperidin-3-yl)phenyl)piperazin-1-yl)ethyl)piperidin-1-yl)benzamide] | C (C is 0.5 to 0.7) | A (A is <0.2)
O=C1CCC(Nc2ccc(N3CC4(CN(CC5CCN(C(=O)c6ccc(Nc7ncc(F)c(Nc8ccc(C(=O)Nc9ccccc9Cl)cc8)n7)cc6)CC5)C4)C3)cc2)C(=O)N1 (centres unmarked) [Compound 42, N-(2-chlorophenyl)-4-((2-((4-(4-((6-(4-((2,6-dioxopiperidin-3-yl)amino)phenyl)-2,6-diazaspiro[3.3]heptan-2-yl)methyl)piperidine-1-carbonyl)phenyl)amino)-5-fluoropyrimidin-4-yl)amino)benzamide] | B (B is 0.3 to 0.5) | A (A is <0.2)
O=C1CCC(NC(=O)c2ccc(N3CCC(CN4CCN(C(=O)Cc5ccc(Nc6ncc(F)c(Nc7ccc(C(=O)Nc8ccccc8Cl)cc7)n6)cc5)CC4)CC3)cc2)C(=O)N1 (centres unmarked) [Compound 46, N-(2-chlorophenyl)-4-((2-((4-(2-(4-((1-(4-((2,6-dioxopiperidin-3-yl)carbamoyl)phenyl)piperidin-4-yl)methyl)piperazin-1-yl)-2-oxoethyl)phenyl)amino)-5-fluoropyrimidin-4-yl)amino)benzamide] | C (C is 0.5 to 0.7) | B (B is 0.2 to 0.4)
O=C1CCC(c2ccc(C#CC3CCN(C4CCN(C(=O)Cc5ccc(Nc6ncc(F)c(Nc7ccc(C(=O)Nc8ccccc8Cl)cc7)n6)cc5)CC4)CC3)cc2)C(=O)N1 (centres unmarked) [Compound 15, N-(2-chlorophenyl)-4-((2-((4-(2-(4-((4-(2,6-dioxopiperidin-3-yl)phenyl)ethynyl)-[1,4′-bipiperidin]-1′-yl)-2-oxoethyl)phenyl)amino)-5-fluoropyrimidin-4-yl)amino)benzamide] | D (D is 0.7 to 0.8) | B (B is 0.2 to 0.4)
O=C1CCC(Nc2ccc(N3CC4CC(C3)N(CC3CCN(C(=O)c5ccc(Nc6ncc(F)c(Nc7ccc(C(=O)Nc8ccccc8Cl)cc7)n6)cc5)CC3)C4)cc2)C(=O)N1 (centres unmarked) [Compound 29, N-(2-chlorophenyl)-4-((2-((4-(4-((3-(4-((2,6-dioxopiperidin-3-yl)amino)phenyl)-3,6-diazabicyclo[3.2.1]octan-6-yl)methyl)piperidine-1-carbonyl)phenyl)amino)-5-fluoropyrimidin-4-yl)amino)benzamide] | C (C is 0.5 to 0.7) | B (B is 0.2 to 0.4)
O=C1CCN(c2ccc(N3CCN(CCC4CCN(NC(=O)c5ccc(Nc6ncc(F)c(Nc7ccc(C(=O)Nc8ccccc8Cl)cc7)n6)cc5)CC4)CC3)cc2)C(=O)N1 [Compound 54, N-(2-chlorophenyl)-4-[[2-[4-[[4-[2-[4-[4-(2,4-dioxohexahydropyrimidin-1-yl)phenyl]piperazin-1-yl]ethyl]-1-piperidyl]carbamoyl]anilino]-5-fluoro-pyrimidin-4-yl]amino]benzamide] | B (B is 0.3 to 0.5) | B (B is 0.2 to 0.4)
O=C1CCC(c2ccc(N3CCN(CCC4CCN(NC(=O)c5ccc(Nc6ncc(F)c(Nc7ccc(C(=O)Nc8ccccc8Cl)cc7)n6)nc5)CC4)CC3)cc2)C(=O)N1 (centres unmarked) [Compound 91, 6-[[4-[4-[(2-chlorophenyl)carbamoyl]anilino]-5-fluoro-pyrimidin-2-yl]amino]-N-[4-[2-[4-[4-(2,6-dioxo-3-piperidyl)phenyl]piperazin-1-yl]ethyl]-1-piperidyl]pyridine-3-carboxamide] | D (D is 0.7 to 0.8) | C (C is 0.4 to 0.6)
O=C1CCC(c2ccc(N3CCN(CCC4CCN(NC(=O)c5ccc(Nc6ncc(F)c(Nc7ccc(C(=O)NC8CCCCC8)cc7)n6)cc5)CC4)CC3)cc2)C(=O)N1 (centres unmarked) [Compound 92, N-cyclohexyl-4-((2-((4-((4-(2-(4-(4-(2,6-dioxopiperidin-3-yl)phenyl)piperazin-1-yl)ethyl)piperidin-1-yl)carbamoyl)phenyl)amino)-5-fluoropyrimidin-4-yl)amino)benzamide] | B (B is 0.3 to 0.5) | A (A is <0.2)
O=C1CCC(Nc2ccc(N3CCN(C[C@@H]4[C@H]5CN(C(=O)c6ccc(Nc7ncc(F)c(Nc8ccc(C(=O)Nc9ccccc9Cl)cc8)n7)cc6)C[C@@H]45)CC3)cc2)C(=O)N1 (stereo partly drawn) [Compound 37, N-(2-chlorophenyl)-4-((2-((4-((1R,5S,6s)-6-((4-(4-((2,6-dioxopiperidin-3-yl)amino)phenyl)piperazin-1-yl)methyl)-3-azabicyclo[3.1.0]hexane-3-carbonyl)phenyl)amino)-5-fluoropyrimidin-4-yl)amino)benzamide] | B (B is 0.3 to 0.5) | B (B is 0.2 to 0.4)
O=C1CCC(Nc2ccc(N3CCC(CN4CCC5(CCN(C(=O)c6ccc(Nc7ncc(F)c(Nc8ccc(C(=O)Nc9ccccc9Cl)cc8)n7)cc6)C5)C4)CC3)cc2)C(=O)N1 (centres unmarked) [Compound 32, N-(2-chlorophenyl)-4-((2-((4-(7-((1-(4-((2,6-dioxopiperidin-3-yl)amino)phenyl)piperidin-4-yl)methyl)-2,7-diazaspiro[4.4]nonane-2-carbonyl)phenyl)amino)-5-fluoropyrimidin-4-yl)amino)benzamide] | B (B is 0.3 to 0.5) | B (B is 0.2 to 0.4)
O=C1CCC(c2ccc(N3CCN(CCN4CC[C@@H](NC(=O)c5ccc(Nc6ncc(F)c(Nc7ccc(C(=O)Nc8ccccc8Cl)cc7)n6)cc5)C4)CC3)cc2)C(=O)N1 (stereo partly drawn) [Compound 64, N-(2-chlorophenyl)-4-((2-((4-(((3R)-1-(2-(4-(4-(2,6-dioxopiperidin-3-yl)phenyl)piperazin-1-yl)ethyl)pyrrolidin-3-yl)carbamoyl)phenyl)amino)-5-fluoropyrimidin-4-yl)amino)benzamide] | B (B is 0.3 to 0.5) | A (A is <0.2)
O=C1CCC(Nc2ccc(N3CC4CC(C3)N(C3CCN(C(=O)c5ccc(Nc6ncc(F)c(Nc7ccc(C(=O)Nc8ccccc8Cl)cc7)n6)cc5)CC3)C4)cc2)C(=O)N1 (centres unmarked) [Compound 28, N-(2-chlorophenyl)-4-((2-((4-(4-(3-(4-((2,6-dioxopiperidin-3-yl)amino)phenyl)-3,6-diazabicyclo[3.2.1]octan-6-yl)piperidine-1-carbonyl)phenyl)amino)-5-fluoropyrimidin-4-yl)amino)benzamide] | C (C is 0.5 to 0.7) | B (B is 0.2 to 0.4)
O=C1CCC(Nc2ccc(N3CCC(CN4C[C@H]5C[C@H](NC(=O)c6ccc(Nc7ncc(F)c(Nc8ccc(C(=O)Nc9ccccc9Cl)cc8)n7)cc6)C[C@H]5C4)CC3)cc2)C(=O)N1 (stereo partly drawn) [Compound 41, N-(2-chlorophenyl)-4-((2-((4-(((3aR,5s,6aS)-2-((1-(4-((2,6-dioxopiperidin-3-yl)amino)phenyl)piperidin-4-yl)methyl)octahydrocyclopenta[c]pyrrol-5-yl)carbamoyl)phenyl)amino)-5-fluoropyrimidin-4-yl)amino)benzamide] | B (B is 0.3 to 0.5) | B (B is 0.2 to 0.4)
